For four molecules, IC50 results are on record in article PMC4771985, “Angiotensin I Converting Enzyme Inhibitory Peptides Derived from Phycobiliproteins of Dulse Palmaria palmata” (Marine Drugs, 2016).

Ends that are not written are not given here. Peptide text beside a SMILES is read from it.

What is called IC50 is the point on the concentration scale where inhibition reaches its midpoint.

The assay deals with T1, ACE from rabbit lung (Oryctolagus cuniculus, UniProt P12822).
T1 construct: ACE from rabbit lung was purchased from Sigma Chemical Co; purchased Sigma Chemical Co. (St. Louis, MO, USA); host or cells: rabbit lung (tissue-derived)
T1 sequence (P12822 34-1310): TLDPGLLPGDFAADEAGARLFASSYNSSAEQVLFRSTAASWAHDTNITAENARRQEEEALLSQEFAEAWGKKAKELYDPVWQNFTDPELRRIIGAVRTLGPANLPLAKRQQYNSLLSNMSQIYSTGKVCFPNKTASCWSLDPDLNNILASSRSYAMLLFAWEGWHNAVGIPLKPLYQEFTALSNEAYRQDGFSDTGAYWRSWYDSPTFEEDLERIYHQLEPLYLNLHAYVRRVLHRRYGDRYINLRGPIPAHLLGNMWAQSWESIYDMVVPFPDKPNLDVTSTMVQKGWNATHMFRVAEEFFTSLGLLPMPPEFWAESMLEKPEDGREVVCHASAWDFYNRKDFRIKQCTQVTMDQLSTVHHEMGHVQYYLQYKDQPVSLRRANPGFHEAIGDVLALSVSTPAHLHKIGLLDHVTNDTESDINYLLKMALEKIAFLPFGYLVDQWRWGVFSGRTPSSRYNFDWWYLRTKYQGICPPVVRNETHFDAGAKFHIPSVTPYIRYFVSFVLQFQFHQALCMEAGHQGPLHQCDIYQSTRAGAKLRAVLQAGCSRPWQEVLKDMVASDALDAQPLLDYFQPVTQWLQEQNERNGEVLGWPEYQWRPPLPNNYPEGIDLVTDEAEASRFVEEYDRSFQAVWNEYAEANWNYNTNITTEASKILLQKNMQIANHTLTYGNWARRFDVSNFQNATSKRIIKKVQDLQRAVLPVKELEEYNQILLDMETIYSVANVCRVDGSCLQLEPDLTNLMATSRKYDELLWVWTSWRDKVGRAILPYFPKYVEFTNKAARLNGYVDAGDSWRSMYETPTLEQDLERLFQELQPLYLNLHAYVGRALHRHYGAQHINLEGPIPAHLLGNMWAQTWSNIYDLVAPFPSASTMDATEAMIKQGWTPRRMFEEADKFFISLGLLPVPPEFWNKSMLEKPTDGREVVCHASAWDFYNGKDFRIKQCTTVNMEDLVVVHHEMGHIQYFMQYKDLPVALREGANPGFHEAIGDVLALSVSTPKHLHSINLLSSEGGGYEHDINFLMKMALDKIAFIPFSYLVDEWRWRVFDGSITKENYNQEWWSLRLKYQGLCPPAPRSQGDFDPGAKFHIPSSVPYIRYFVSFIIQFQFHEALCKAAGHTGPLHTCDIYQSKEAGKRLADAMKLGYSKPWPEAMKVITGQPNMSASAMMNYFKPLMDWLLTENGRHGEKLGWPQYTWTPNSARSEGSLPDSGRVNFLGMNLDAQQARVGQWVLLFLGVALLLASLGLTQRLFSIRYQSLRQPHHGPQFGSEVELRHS
The experiment in a line: ACE inhibitory assay (Hip-His-Leu). The conditions noted are these: IC50 defined as absolute quantity of peptide to inhibit 50% of 1.0 U ACE; pre-incubated 37 °C 5 min; Hip-His-Leu 12.5 mM, 0.1 M sodium borate, 400 mM NaCl, pH 8.3, 37 °C, 1 h; hippuric acid absorbance at 228 nm; read-out: IC50 Value, ACE inhibitory activity of synthetic peptides. In kind it is biochemical. The text has this: ACE from rabbit lung was purchased from Sigma Chemical Co. (St. Louis, MO, USA). Hyppuryl-L-histidyl-L-leucine (Hip-His-Leu), thermolysin (EC 3.4.24.27) from Bacillus thermoproteolyticus, pepsin (EC 3.4.23.1) from porcine stomach, trypsin (EC 3.4.21.4) from bovine pancreas and chymotrypsin (EC 3.4.21.1) from bovine pancreas were purchased from Wako Pure Chemical (Osaka, Japan). Synthetic peptides (purity: 99.4%–99.8%) were purchased from Medical Biological Laboratories Co. (Nagoya, Japan). All other reagents were purchased from Wako Pure Chemical Industries (Osaka, Japan).
ACE inhibitory assay was carried out according to the method of Cheng and Cushman with some modifications. Fifteen microliters of sample solution (5.0 mg/mL) were added to 30 μL of ACE (0.2 units/mL), and the mixture was pre-incubated at 37 °C for 5 min. Thirty microliters of Hip-His-Leu solution (12.5 mM in 0.1 M sodium borate buffer containing 400 mM NaCl at pH 8.3) were added to the mixture. After incubation at 37 °C for 1 h, the reaction was stopped by adding 75 μL of 1.0 M HCl. The released hippuric acid was extracted with 450 μL of ethyl acetate. Four hundred microliters of the upper layer were evaporated, and then the hippuric acid was dissolved in 1.5 mL of distilled water. The absorbance at 228 nm of the solution was measured by a spectrophotometer. The inhibition was calculated from the equation [1 − (As − Asb)/(Ac − Acb)] × 100, where Ac is the absorbance of the buffer, Acb is the absorbance when the stop solution was added to the buffer before the reaction, As is the absorbance of the sample, and Asb is the absorbance when the stop solution was added to the sample before the reaction. In this study, we defined the IC50 as an absolute quantity of peptide to inhibit 50% of 1.0 U ACE.
In the case of FEQDWAS [FEQDWAS], the IC50 was greater than 2800 nM.

On to `CC(C)C[C@H](N)C(=O)N[C@@H](CCCNC(=N)N)C(=O)N[C@@H](Cc1ccc(O)cc1)C(=O)O` [LRY] (H-Leu-Arg-Tyr-OH), for which the IC50 came to 44 nM.

For the molecule `CC(C)C[C@H](N)C(=O)N[C@@H](CC(=O)O)C(=O)N[C@@H](Cc1ccc(O)cc1)C(=O)O` [LDY] (H-Leu-Asp-Tyr-OH), the IC50 is 6100 nM.

As to `CC(C)[C@H](N)C(=O)N[C@@H](Cc1ccc(O)cc1)C(=O)N[C@@H](CCCNC(=N)N)C(=O)N[C@H](C(=O)O)[C@@H](C)O` [VYRT] (H-VYRT-OH), the IC50 was determined as 140 nM.
